This is an account of results in US7276604B2, “Crystalline form of the sodium salt of 3-pyridyl-1-hydroxyethylidene-1,1-bisphosphonic acid” (Zentiva A.S., priority 2002, dated 2007).

What all share (type): physicochemical
Data set [1] can be described thus: Drying in vacuum oven and re-uptake of water (stability of water content, Karl Fischer / TGA). To be noted: for water content after standing at 100% relative air humidity: within two hours; for hygroscopicity of the dried product: after drying in a vacuum oven. An excerpt: An useful example of such a hydrate is a modification that is characterized by water content 20 up to 23%, specially with 22.8 w. % of water, and sodium content 5.5 up to 7.5%, specially 6.4 up to 6.7 w. %. The specified water content is built in the crystal lattice and the mentioned crystalline modification is thermodynamically stable. By drying with several different drying regimes, the mentioned crystalline modification was dried to the water content corresponding to the pentahemihydrate, the monohydrate and the anhydrous form of sodium 3-pyridyl-1-hydroxyethylidene-1,1-bisphosphonate. When the substance is left standing on the air, the water content stabilizes spontaneously at the original level. Time that it takes for the water content to stabilize depends on relative humidity in the environment in which the dried substance is placed.
(§1) Water content in the substance was determined using a method according to Karl Fischer and TGA analyses. Sodium content in the substance was determined using acidobasic titration and AAS. Solubility tests were performed according to the Technical Guide European Pharmacopeia.
The dried product is hygroscopic. If the substance is left standing at room temperature and usual relative air humidity, the water content returns to the original level within 12 hours.
In the pentahydrate dried in a vacuum oven at 105° C., the substance's water content decreases to 3% after six hours. The dried product is hygroscopic. If the substance is left standing at room temperature and usual relative air humidity, the water content increases with a speed of about 0.5% an hour. Within 11 days, the substance's water content returns to about 20 weight %.
In trihydrate of the trisodium salt dried in a vacuum oven at 105° C., the substance's water content decreases to 1.1% after 6 hours. The dried product is hygroscopic. If the substance is placed in an environment with 100% relative air humidity, the water content returns to the original level within two hours.
In trihydrate of the disodium salt dried in a vacuum oven at 105° C., the substance's water content decreases to approximately 1.7% after 6 hours. The dried product is hygroscopic. If the substance is placed in an environment with 100% relative air humidity, the water content returns to the level of approximately 5.2% within two hours.

Data set [2] is described as follows: Solubility test in 0.1 M HCl with pH 1.1 (Technical Guide European Pharmacopeia). To be noted: for dissolution observed: 0.1 M HCl pH 1.1, 0.1, 0.9, 2.0 and 7.0 ml added gradually, 25° C. for 15 min; for proportion of the dissolved substance: 0.1 M HCl pH 1.1, 10.0 ml added in total to about 100 mg, 25° C., HPLC. As for the experimental part: as §1
0.1 ml; 0.9 ml, 2.0 and 7.0 ml of 0.1 M HCl with pH 1.1 were gradually added to a 106.8 mg sample of risedronate monosodium salt pentahemihydrate. The suspension was mixed for 1 min and tempered to 25° C. for 15 min after each addition of acid. […] The proportion of the dissolved substance was determined to be 9.46% using HPLC.
0.1 ml; 0.9 ml, 2.0 and 7.0 ml of 0.1 M HCl with pH 1.1 were gradually added to a 99.07 mg sample of risedronate monosodium salt pentahydrate. The suspension was mixed for 1 min and tempered to 25° C. for 15 min after each addition of acid. […] The proportion of the dissolved substance was determined to be 31.62% using HPLC.

Data set [3] in a line: Solubility test in water (Technical Guide European Pharmacopeia). The settings on record: for dissolution observed: 0.1, 0.9 and 2.0 ml added gradually, 25° C. for 15 min; for proportion of the dissolved substance: 3.0 ml added in total to about 100 mg, 25° C., HPLC. As for the experimental part: as §1
0.1 ml; 0.9 ml and 2.0 ml of water were gradually added to a 100.25 mg sample of risedronate monosodium salt pentahemihydrate. The suspension was mixed for about 1 min and tempered to 25° C. for 15 min after each addition of water. […] The proportion of the dissolved substance was determined to be 100% using HPLC.
0.1 ml; 0.9 ml and 2.0 ml of water were gradually added to a 98.78 mg sample of risedronate monosodium salt pentahydrate. The suspension was mixed for about 1 min and tempered to 25° C. for 15 min after each addition of water. […] The proportion of the dissolved substance was determined to be 100% using HPLC.

[4] abbreviates: after drying at 105° C., 100% relative air humidity.
Where [5] appears, read: vacuum oven at 105° C., after 6 hours.

Where a name gives a salt, the structure may show the parent alone.

For `O=P(O)(O)C(O)(Cc1cccnc1)P(=O)(O)O` [Risedronate disodium salt monohydrate, disodium 3-pyridyl-1-hydroxyethylidene-1,1-bisphosphonate], in data set [1] (after drying at 105° C., 100% relative air humidity, listed as trihydrate of the disodium salt), the “water content after standing at 100% relative air humidity” value is reported as “approximately 5.2%”. Further, the “period in which the water content mostly stabilizes at the given value” in data set [1] (dried at different conditions, then high relative humidity, 'mostly') was “less than 12 hours”. For the same molecule, in data set [1] (vacuum oven at 105° C., after 6 hours, listed as trihydrate of the disodium salt), the “water content after drying” value was “approximately 1.7%”.

Regarding `O=P(O)(O)C(O)(Cc1cccnc1)P(=O)(O)O` [risedronate monosodium salt pentahemihydrate] [monosodium 3-pyridyl-1-hydroxyethylidene-1,1-bisphosphonate, reference compound], the dissolution observed result is reported as “did not dissolve completely” in data set [2] and “completely dissolved” in data set [3]. Also, the entries for the “proportion of the dissolved substance” value in data set [2] and in data set [3] were 9.46% and 100%, respectively.

In the case of `O=P(O)(O)C(O)(Cc1cccnc1)P(=O)(O)O` [risedronate monosodium salt pentahydrate, monosodium 3-pyridyl-1-hydroxyethylidene-1,1-bisphosphonate], the “time for water content to return to the original level” value in data set [1] (after drying at 50° C., room temperature and usual relative air humidity) is not above 12 h. Also, in data set [1] (setting [4]), the “water content after standing at 100% relative air humidity” value came out at 22.7%. Also, the “speed of water content increase” value in data set [1] (after drying at 105° C., room temperature and usual relative air humidity) is recorded as “about 0.5 % an hour”. Further, the “water content after standing” value in data set [1] (after drying at 105° C., room temperature and usual relative air humidity, within 11 days) was “about 20 weight %”. Further, the “hygroscopicity of the dried product” value in data set [1] was “hygroscopic”. The “stability of the regained water content” value in data set [1] (usual lab conditions) is “stable and does not change”. Also, the “water content after drying” value is on record as 11.5% in data set [1] (vacuum oven at 50° C., after six hours) and 3% in data set [1] (setting [5]). The “solubility in 0.1 M hydrochloric acid compared with the pentahemihydrate form” value in data set [2] (0.1 M HCl pH 1.1) is listed as “significantly more soluble”. For the same molecule, the figures for the dissolution observed result in data set [2] and in data set [3] were “did not dissolve completely” and “completely dissolved”, respectively. Also, the “proportion of the dissolved substance” value stood at 31.62% in data set [2] and 100% in data set [3].

As to `O=P(O)(O)C(O)(Cc1cccnc1)P(=O)(O)O` [trihydrate of the trisodium salt, trisodium 3-pyridyl-1-hydroxyethylidene-1,1-bisphosphonate], in data set [1] (setting [4]), the “time for water content to return to the original level” value is “two”. The “hygroscopicity of the dried product” value in data set [1] is recorded as “hygroscopic”. Further, the “water content after drying” value in data set [1] (setting [5]) is 1.1%.
